We go through two compounds from PMC10518255, “A first-in-class pan-lysyl oxidase inhibitor impairs stromal remodeling and enhances gemcitabine response and survival in pancreatic cancer” (Nature Cancer, 2023).

Several values for one entry are separate records, joined by “and”; a condition that tells them apart may be missing. Equal entries are not always repeated.

Assay [1] deals with APMA human PDX tumors. The experiment in a line: APMA human PDX model, picrosirius red birefringence (Extended Data Fig. 5i). The assay is classed as in vivo, mouse. As to conditions: for Quantification of green birefringent (nascent) collagen fibres: Extended Data 5I, human PDXs at endpoint, individual animals. The method, then:
Subcutaneous PDX studies were performed by implanting early passage PDX pieces (~4 mm^3) or TKCC10 CCs (1.5 × 10^6 cells per mouse in 100 μl PBS/Matrigel 1:1) into female (PDX) or male (TKCC10) 8-week-old immunocompromised nude Balb/c-Fox1nuAusb mice subcutaneously on the left flank. For the duration of the study, mice were kept in conventional caging with environmental enrichment, access to standard chow, water ad libitum and 12-h light–dark cycle at ambient temperature and humidity. Treatment began when tumors reached 150 mm^3, where each mouse was randomized into a treatment group and administered gemcitabine HCl (100 mg kg^−1 in saline) (Jomar Life Research) or vehicle control (0.9% saline) by i.p. injection twice weekly on day 2 and 4 of the treatment cycle until an ethical end point was reached. These included maximal tumor mass ≥10% of body weight, weight loss ≥20% from maximum body weight or tumor interfering with mobility and affecting access to food and water. Animals with non-tumor-related complications that led to a premature end point were censored. […] Tumor size was monitored every second day by calipers. Tumor volume was calculated using the formula (length × width^2)/2. […]
For assessment of picrosirius red staining in KPC and APMA patient tumors, five representative regions of interest per section were analyzed for both brightfield and polarized light by a blinded reviewer using in-house automated analysis scripts as described previously[28],[34],[58] […]
Extended Data Fig. 5 PXS-5505 in combination with gemcitabine in vivo. a. […] Signal is defined as the enzyme activity in the aorta, while noise is measured in the presence of a high concentration (300 µM) BAPN to abolish any lysyl oxidase family activity. […] FITC-dextran (molecular weight: 10 kDa) signal quantification from KPC tumor end point from each treatment group (vehicle n = 3 biologically independent animals, PXS-5505 n = 5 biologically independent animals, Gem n = 5 biologically independent animals, PXS-5505 + Gem n = 5 biologically independent animals). […] P-values determined by Welchs t-test. […]

In assay [2] the test system is APMA human PDX tumors. The assay is described as follows: APMA human PDX model, bulk modulus by unconfined compression (Extended Data Fig. 5j). Also noted: Bulk modulus (stiffness) by unconfined compression testing: unit: kPa (bulk elastic modulus, slope of stress–strain curve). To be noted: for Bulk modulus (stiffness) by unconfined compression testing: Extended Data 5J, endpoint human PDX tumours (second model), individual animals. The assay is classed as in vivo, mouse. On the procedure: Unconfined compression of in vivo tissue samples was carried out on 2–3-mm cross-sectional slices using a TA Instruments Dynamic Hybrid Rheometer (DHR-3, TA Instruments). Tissue samples were placed between upper and lower parallel plate geometries. A constant linear compressive rate of 5 µm s^−1 was applied to the samples and axial force (N) and gap (mm) were collected every 0.01 s. Data were processed and a stress–strain curve for each replicate was obtained. Bulk elastic modulus (kPa) was obtained as the gradient of the linear region of the stress–strain curve corrected for cross-sectional area of sample. Data points represent individual biological replicates.
Subcutaneous PDX studies were performed by implanting early passage PDX pieces (~4 mm^3) or TKCC10 CCs (1.5 × 10^6 cells per mouse in 100 μl PBS/Matrigel 1:1) into female (PDX) or male (TKCC10) 8-week-old immunocompromised nude Balb/c-Fox1nuAusb mice subcutaneously on the left flank. For the duration of the study, mice were kept in conventional caging with environmental enrichment, access to standard chow, water ad libitum and 12-h light–dark cycle at ambient temperature and humidity. […] Tumor size was monitored every second day by calipers. Tumor volume was calculated using the formula (length × width^2)/2. […]
Extended Data Fig. 5 PXS-5505 in combination with gemcitabine in vivo. a. […] Signal is defined as the enzyme activity in the aorta, while noise is measured in the presence of a high concentration (300 µM) BAPN to abolish any lysyl oxidase family activity. […] FITC-dextran (molecular weight: 10 kDa) signal quantification from KPC tumor end point from each treatment group (vehicle n = 3 biologically independent animals, PXS-5505 n = 5 biologically independent animals, Gem n = 5 biologically independent animals, PXS-5505 + Gem n = 5 biologically independent animals). […] P-values determined by Welchs t-test. […] Quantification of red birefringent (mature) collagen fibers from human PDXs at end point after 3 cycles of treatment, treated as indicated. […] P values determined by Welchs t-test. g. […]

The mark [3] stands for this setting: APMA human PDX, three rounds of treatment.

Turning to `Nc1ccn([C@@H]2O[C@H](CO)[C@@H](O)C2(F)F)c(=O)n1` [Gem, gemcitabine], the “deposition of collagen I (picrosirius red birefringence)” value with APMA human PDX tumors [1] (setting [3]) is on record as “increase in the deposition of collagen I”. Besides, the “Quantification of green birefringent (nascent) collagen fibres” value in the assay on APMA human PDX tumors [1] was 672.333 and 613 and 417.333 and 643.667 and 776 and 904.333 and 1865.67 and 529.667 and 397.667 and 278. The tumor stiffness result with APMA human PDX tumors [2] (setting [3]) is on record as “increase in tumor stiffness”. The “Bulk modulus (stiffness) by unconfined compression testing” value in the assay on APMA human PDX tumors [2] was 269.794 and 256.26 and 76.734 and 111.802 and 206.587 and 133.731 and 307.593 and 168.407 and 179.416 and 246.898.
Take `Cl.Cl.NC/C=C(\F)CS(=O)(=O)c1cccc2cccnc12.O` [PXS-5505, (Z)-3-fluoro-4-(quinolin-8-ylsulfonyl)but-2-en-1-amine dihydrochloride monohydrate]: in the assay on APMA human PDX tumors [1], the “Quantification of green birefringent (nascent) collagen fibres” value was 61.6667 and 1138 and 246 and 184 and 80.3333 and 99.6667 and 1125.33 and 424.667 and 169.333 and 108. Further, the “Bulk modulus (stiffness) by unconfined compression testing” value with APMA human PDX tumors [2] was 1.617 and 12.779 and 4.886 and 20.468 and 19.194 and 15.624 and 4.142 and 7.216 and 19.443.
